Results as given in patent US20250332300A1 (priority 2024, published 2025).
Where two headings read alike, the source gives them in different places. Positions of bridges follow the written chain, without caps; N, C: chain ends. Non-standard residues stand in square brackets, D forms with d. *: point of attachment. DOTA = O=C(O)CN1CCN(CC(=O)O)CCN(CC(=O)*)CCN(CC(=O)O)CC1; Trp(5-OH) = N[C@@H](Cc1c[nH]c2ccc(O)cc12)C(=O)O; NMePhe(4-F) = CN[C@@H](Cc1ccc(F)cc1)C(=O)O; NMehPhe = CN[C@@H](CCc1ccccc1)C(=O)O; Aad = N[C@@H](CCCC(=O)O)C(=O)O; NMeDap = CN[C@@H](CN)C(=O)O; NMeC = CN[C@@H](CS)C(=O)O; NMeS = CN[C@@H](CO)C(=O)O; CproG = not defined here

Legend:
[1] = target: human HER3 (Homo sapiens, UniProt P21860); assay: SPR selectivity over close protein homologs, HER3; assay type: binding; details: protein homolog immobilized on a CM5 chip
[2] = target: T1, human HER2 (23-652) (Homo sapiens, UniProt P04626); assay: Surface plasmon resonance (SPR) for assessment of peptide affinity, human HER2; assay type: binding; parameters: towards human HER2 (23-652) and mouse HER2 (23-653); made in house; details: SPR, human HER2 extracellular domain, 25° C., 1:1 binding model; read-out: huHER2-SPR-ONC KD
Outline: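 Binding kinetics fitted from sensorgrams with 280 s peptide association then 3000 s dissociation (30 uL/min), using HER2 (23-652) either directly immobilized (SA/CM5) or anti-Fc-captured; 3 M magnesium chloride used for regeneration.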

[3] = target: human EGFR (Homo sapiens, UniProt P00533); assay: SPR selectivity over close protein homologs, EGFR; assay type: binding; details: protein homolog immobilized on a CM5 chip
[4] = target: T1, human HER2 (23-652); assay: TR-FRET competition assay for peptide potency, human HER2; assay type: binding; parameters: towards human HER2 (23-652) and mouse HER2 (23-653); made in house; host or cells: mammalian cells; details: read-out: huHER2 TR-FRET IC50
[5] = target: human HER4 (Homo sapiens, UniProt Q15303); assay: SPR selectivity over close protein homologs, HER4; assay type: binding; details: protein homolog immobilized on a CM5 chip
[6] = target: T2, mouse HER2 (23-653) (Mus musculus, UniProt P70424); assay: TR-FRET competition assay for peptide potency, mouse HER2; assay type: binding; parameters: mouse HER2 (23-653) using a Cy5 labeled peptide as a probe; made in house; host or cells: mammalian cells; details: TR-FRET competition with Cy5 labeled peptide probe, 0.1 nM mouse HER2, 24 h incubation; read-out: moHER2 TR-FRET IC50
[7] = target: T2, mouse HER2 (23-653); assay: Surface plasmon resonance (SPR) for assessment of peptide affinity, mouse HER2; assay type: binding; parameters: mouse HER2 (23-653) using a Cy5 labeled peptide as a probe; made in house; details: SPR, mouse HER2 extracellular domain, 25° C., 1:1 binding model; read-out: moHER2-SPR-ONC KD
Text: Each protein was immobilized either onto a SA sensorchip (Cytiva, BR-1005-31) or CM5 sensorchip (Cytiva, BR-1005-30) to a density of 800-2000 RU.
Target sequence in this assay (P70424 23-653): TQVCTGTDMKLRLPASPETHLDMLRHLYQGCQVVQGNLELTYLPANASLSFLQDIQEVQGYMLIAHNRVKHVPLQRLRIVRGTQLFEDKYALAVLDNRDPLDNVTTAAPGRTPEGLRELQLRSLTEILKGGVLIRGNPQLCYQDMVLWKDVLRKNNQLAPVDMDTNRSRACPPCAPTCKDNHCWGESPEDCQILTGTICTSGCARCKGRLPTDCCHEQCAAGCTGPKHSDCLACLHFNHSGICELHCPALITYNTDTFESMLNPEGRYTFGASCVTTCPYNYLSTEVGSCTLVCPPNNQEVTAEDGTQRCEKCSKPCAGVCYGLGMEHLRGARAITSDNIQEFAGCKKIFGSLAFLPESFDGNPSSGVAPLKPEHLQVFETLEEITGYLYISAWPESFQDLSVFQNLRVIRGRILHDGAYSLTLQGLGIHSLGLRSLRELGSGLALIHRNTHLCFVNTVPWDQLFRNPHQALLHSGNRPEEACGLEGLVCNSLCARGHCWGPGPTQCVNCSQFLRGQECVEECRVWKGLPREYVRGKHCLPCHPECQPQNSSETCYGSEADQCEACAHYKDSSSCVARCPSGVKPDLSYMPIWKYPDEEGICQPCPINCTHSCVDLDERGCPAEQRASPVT

[8] = target: human Herstatin (a soluble truncated HER2 protein) (Homo sapiens, UniProt P04626); assay: SPR selectivity over close protein homologs, Herstatin; assay type: binding; details: protein homolog immobilized on a CM5 chip
[9] = assay type: physicochemical
Protocol: Radio-HPLC Analytical Method: Eluent A: Water+0.1% TFA; Eluent B: ACN+0.1% TFA; Column temperature: 25° C.; Flow: 1.0 mL/min; Column: […] Gradient: hold 10% B for 1 min, from 10 to 80% B in 8 min, hold 80% B for 2 min, from 80 to 15% B in 1 min. The initial radiochemical purity of [^68Ga]Ga-labeled compounds was analyzed by radio-HPLC and the stability in solution at 24° C. was evaluated 4 h after the end of synthesis by radio-HPLC.

[10] = amide bond, DMF, resin, with chain assembly
[11] = assay type: physicochemical; remark: listed apart in the source
Protocol: Radio-HPLC Analytical Method: Eluent A: Water+0.1% TFA; Eluent B: ACN+0.1% TFA; Column temperature: 25° C.; Flow: 1.0 mL/min; Column: […] Gradient: hold 10% B for 1 min, from 10 to 80% B in 8 min, hold 80% B for 2 min, from 80 to 15% B in 1 min. Radio-iTLC Analytical Method: […] For Lu-177 and Ga-68, the radiotracer-spotted iTLC plates were directly read in a radio-TLC scanner after developing in a sodium citrate 0.1M (pH 4.6) mobile phase. Rf([^177Lu/^68Ga]Lu/Ga-labeled compounds)=0.0-0.5 and Rf (unchelated ^177Lu^3+/^68Ga^3+)=0.5-1.0. The initial radiochemical purity of the [^177Lu]Lu-labeled compounds was analyzed by […] and […] and the stability in solution at 24° C. was evaluated after the end of synthesis by radio-HPLC.

[12] = target: mouse HER2 (23-653), biotinylated, His tag, Avi tag (mouse) (UniProt P70424); assay: SPR, HER2 on chip, 25 C
[13] = target: human HER2 (23-652), biotinylated, His tag, Avi tag (human) (UniProt P04626); assay: TR-FRET competition vs Cy5 peptide probe; TR-FRET competition, IC50

Sequence of human HER3 (P21860 20-1342): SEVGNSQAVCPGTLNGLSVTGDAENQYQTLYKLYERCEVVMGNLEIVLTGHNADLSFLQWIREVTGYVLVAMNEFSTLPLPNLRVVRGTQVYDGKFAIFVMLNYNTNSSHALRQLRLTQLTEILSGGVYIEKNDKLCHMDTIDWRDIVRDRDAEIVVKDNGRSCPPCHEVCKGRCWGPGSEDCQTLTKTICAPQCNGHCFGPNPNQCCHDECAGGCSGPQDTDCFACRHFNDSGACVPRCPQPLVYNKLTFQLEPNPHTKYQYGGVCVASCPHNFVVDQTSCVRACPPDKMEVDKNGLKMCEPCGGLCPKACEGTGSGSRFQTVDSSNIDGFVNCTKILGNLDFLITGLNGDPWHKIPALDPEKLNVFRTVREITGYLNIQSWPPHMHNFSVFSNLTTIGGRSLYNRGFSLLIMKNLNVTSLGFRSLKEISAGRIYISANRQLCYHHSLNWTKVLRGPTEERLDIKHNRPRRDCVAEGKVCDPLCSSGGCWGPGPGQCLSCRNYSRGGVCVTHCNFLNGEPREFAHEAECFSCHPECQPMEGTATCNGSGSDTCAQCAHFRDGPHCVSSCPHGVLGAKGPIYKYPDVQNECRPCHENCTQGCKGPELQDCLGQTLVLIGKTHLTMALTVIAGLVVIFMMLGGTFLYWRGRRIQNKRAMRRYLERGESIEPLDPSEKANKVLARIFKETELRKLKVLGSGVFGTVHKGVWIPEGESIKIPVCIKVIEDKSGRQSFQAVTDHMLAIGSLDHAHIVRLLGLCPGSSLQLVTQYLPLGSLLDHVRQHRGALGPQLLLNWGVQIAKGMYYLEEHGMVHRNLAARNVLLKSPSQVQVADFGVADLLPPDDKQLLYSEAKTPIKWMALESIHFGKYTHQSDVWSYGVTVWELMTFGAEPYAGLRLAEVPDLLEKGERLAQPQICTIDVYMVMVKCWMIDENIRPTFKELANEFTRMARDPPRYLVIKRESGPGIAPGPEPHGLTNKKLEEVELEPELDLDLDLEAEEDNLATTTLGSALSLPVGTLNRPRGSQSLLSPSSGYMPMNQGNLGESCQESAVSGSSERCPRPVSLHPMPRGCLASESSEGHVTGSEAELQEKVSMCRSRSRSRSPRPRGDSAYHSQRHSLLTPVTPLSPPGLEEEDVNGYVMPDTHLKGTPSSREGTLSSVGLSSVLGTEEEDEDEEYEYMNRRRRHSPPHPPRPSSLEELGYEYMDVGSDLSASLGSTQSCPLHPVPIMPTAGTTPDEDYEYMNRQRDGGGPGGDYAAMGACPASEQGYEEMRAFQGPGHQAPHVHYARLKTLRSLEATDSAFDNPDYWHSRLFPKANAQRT
Sequence of human EGFR (P00533 25-1210): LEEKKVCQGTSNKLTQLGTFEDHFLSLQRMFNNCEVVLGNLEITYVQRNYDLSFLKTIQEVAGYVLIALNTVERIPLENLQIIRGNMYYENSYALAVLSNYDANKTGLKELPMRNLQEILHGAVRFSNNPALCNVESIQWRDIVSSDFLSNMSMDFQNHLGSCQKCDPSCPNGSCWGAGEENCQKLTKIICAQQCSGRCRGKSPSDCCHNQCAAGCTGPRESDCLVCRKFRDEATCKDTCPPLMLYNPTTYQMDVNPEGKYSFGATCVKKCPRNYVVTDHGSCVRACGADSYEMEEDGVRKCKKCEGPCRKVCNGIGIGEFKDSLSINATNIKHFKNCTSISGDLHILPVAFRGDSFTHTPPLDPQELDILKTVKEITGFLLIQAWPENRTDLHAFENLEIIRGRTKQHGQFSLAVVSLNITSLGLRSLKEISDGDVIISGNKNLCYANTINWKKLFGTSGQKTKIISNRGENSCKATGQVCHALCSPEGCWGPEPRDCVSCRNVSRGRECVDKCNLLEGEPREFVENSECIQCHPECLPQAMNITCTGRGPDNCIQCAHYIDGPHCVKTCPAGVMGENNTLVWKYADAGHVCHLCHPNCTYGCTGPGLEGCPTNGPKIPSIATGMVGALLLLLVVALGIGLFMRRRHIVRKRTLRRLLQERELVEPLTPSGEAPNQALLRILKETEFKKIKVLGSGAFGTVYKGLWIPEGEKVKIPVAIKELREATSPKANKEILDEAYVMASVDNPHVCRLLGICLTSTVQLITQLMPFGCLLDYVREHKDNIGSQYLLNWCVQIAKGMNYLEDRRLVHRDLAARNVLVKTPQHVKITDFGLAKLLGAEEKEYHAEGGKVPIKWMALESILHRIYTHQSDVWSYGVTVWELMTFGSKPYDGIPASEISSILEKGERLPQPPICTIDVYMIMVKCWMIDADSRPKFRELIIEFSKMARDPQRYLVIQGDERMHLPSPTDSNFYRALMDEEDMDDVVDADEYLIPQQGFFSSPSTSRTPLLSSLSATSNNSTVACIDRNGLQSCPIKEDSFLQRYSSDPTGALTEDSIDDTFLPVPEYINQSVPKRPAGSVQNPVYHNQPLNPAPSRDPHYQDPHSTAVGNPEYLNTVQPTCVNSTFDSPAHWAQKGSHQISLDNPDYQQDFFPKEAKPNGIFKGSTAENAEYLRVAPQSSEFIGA
Sequence of human HER4 (Q15303 26-1308): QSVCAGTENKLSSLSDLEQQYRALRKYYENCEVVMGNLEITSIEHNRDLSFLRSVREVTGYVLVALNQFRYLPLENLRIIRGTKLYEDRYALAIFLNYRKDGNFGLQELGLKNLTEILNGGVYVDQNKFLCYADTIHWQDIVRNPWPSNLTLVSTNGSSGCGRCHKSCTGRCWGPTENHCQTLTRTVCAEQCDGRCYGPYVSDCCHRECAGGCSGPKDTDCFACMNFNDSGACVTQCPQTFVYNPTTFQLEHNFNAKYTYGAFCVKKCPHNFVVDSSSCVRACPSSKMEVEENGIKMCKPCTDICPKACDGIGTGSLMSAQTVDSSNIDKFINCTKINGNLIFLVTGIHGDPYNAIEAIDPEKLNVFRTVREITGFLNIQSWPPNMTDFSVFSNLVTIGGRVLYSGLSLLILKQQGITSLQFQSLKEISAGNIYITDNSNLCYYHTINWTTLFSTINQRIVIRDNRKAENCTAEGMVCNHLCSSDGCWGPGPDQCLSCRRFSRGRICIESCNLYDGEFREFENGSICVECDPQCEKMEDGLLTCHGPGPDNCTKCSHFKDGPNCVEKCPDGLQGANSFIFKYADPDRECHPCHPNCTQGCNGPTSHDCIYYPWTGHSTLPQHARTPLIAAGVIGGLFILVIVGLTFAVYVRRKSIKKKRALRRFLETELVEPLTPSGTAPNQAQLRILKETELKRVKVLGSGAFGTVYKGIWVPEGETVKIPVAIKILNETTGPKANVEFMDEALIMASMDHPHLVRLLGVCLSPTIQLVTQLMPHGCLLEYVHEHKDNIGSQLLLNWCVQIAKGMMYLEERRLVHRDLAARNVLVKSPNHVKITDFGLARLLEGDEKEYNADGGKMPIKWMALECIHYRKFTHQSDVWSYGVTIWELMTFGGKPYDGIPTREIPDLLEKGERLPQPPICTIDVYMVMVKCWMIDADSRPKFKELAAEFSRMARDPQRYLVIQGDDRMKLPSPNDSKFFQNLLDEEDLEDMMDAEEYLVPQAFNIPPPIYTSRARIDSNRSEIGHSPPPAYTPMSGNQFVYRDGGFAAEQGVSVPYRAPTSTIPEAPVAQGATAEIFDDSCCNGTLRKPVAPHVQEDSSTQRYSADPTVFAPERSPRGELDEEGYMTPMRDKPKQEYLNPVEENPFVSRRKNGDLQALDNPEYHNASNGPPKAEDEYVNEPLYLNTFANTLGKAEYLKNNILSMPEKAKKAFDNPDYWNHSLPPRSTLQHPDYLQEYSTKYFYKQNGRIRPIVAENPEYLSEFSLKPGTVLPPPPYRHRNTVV
Sequence of mouse HER2 (23-653), biotinylated, His tag, Avi tag (mouse) (P70424 23-653 limits assumed): as the sequence (P70424 23-653) above

| Molecule | Kd [1] | Kd [2] | Kd [3] | IC50 [4] | Kd [5] | IC50 [6] | Kd [7] | Kd [8] | further results |
| --- | --- | --- | --- | --- | --- | --- | --- | --- | --- |
| CC(=O)NCCCC[C@H]1C(=O)N[C@@H](Cc2c[nH]c3ccc(O)cc23)C(=O)N[C@@H](Cc2c[nH]c3ccccc23)C(=O)N[C@@H](C2CC2)C(=O)N(C)[C@H](C(=O)N(C)[C@@H](Cc2ccc(F)cc2)C(=O)N[C@@H](CCCCNC(=O)CN2CCN(CC(=O)O)CCN(CC(=O)O)CCN(CC(=O)O)CC2)C(N)=O)CNC(=O)CCC[C@H](NC(C)=O)C(=O)N[C@@H](Cc2ccc(O)cc2)C(=O)N[C@@H](CO)C(=O)N(C)[C@@H](CCc2ccccc2)C(=O)N1C [Example B1] | > 6 µM | < 0.0001 µM | > 6 µM | < 0.0001 µM | > 6 µM | < 0.0001 µM | < 0.0001 µM | > 6 µM | – |
| CC(=O)NCCCC[C@H]1C(=O)N[C@@H](Cc2c[nH]c3ccc(O)cc23)C(=O)N[C@@H](Cc2c[nH]c3ccccc23)C(=O)N[C@@H](C2CC2)C(=O)N(C)[C@H](C(=O)N(C)[C@@H](Cc2ccc(F)cc2)C(=O)N[C@@H](CCCCNC(=O)CN2CCN(CC(=O)O)CCN(CC(=O)O)CCN(CC(=O)O)CC2)C(N)=O)CNC(=O)CCC[C@H](NC(C)=O)C(=O)N[C@@H](Cc2ccc(O)cc2)C(=O)N[C@@H](CO)C(=O)N(C)[C@@H](CCc2ccccc2)C(=O)N1C [Example I2, Example B1 labelled with ^68Ga, metal not drawn] | – | – | – | – | – | – | – | – | Radiochemical purity by radio-HPLC, stability in solution, 4 h [9]: 97.2% |
| CC(=O)NCCCC[C@H]1C(=O)N[C@@H](Cc2c[nH]c3ccc(O)cc23)C(=O)N[C@@H](Cc2c[nH]c3ccccc23)C(=O)N[C@@H](C2CC2)C(=O)N(C)[C@H](C(=O)N(C)[C@@H](Cc2ccc(F)cc2)C(=O)N[C@@H](CCCCNC(=O)CN2CCN(CC(=O)O)CCN(CC(=O)O)CCN(CC(=O)O)CC2)C(N)=O)CNC(=O)CCC[C@H](NC(C)=O)C(=O)N[C@H](Cc2ccc(O)cc2)C(=O)N[C@H](CO)C(=O)N(C)[C@@H](CCc2ccccc2)C(=O)N1C [Example B4] | > 6 µM | > 6 µM | > 6 µM | > 1 µM | > 6 µM | > 1 µM | > 6 µM | > 6 µM | – |
| ((S)-2-((3S,6S,9S,12S,15S,18S,21S,24S,27S)-9-((1H-indol-3-yl)methyl)-27-acetamido-15-(4-acetamidobutyl)-6-cyclopropyl-12-((5-hydroxy-1H-indol-3-yl)methyl)-24-(4-hydroxybenzyl)-21-(hydroxymethyl)-N,4,16,19-tetramethyl-5,8,11,14,17,20,23,26,31-nonaoxo-18-phenethyl-1,4,7,10,13,16,19,22,25-nonaazacyclohentriacontane-3-carboxamido)-3-(4-fluorophenyl) propanoyl)-L-lysine TFA Salt | – | – | – | – | – | – | – | – | ring closure, yield after HPLC ([10]; 31-membered ring, HATU/DIEA, 10.0 mM): 2.4% |
| 2-(4-(((S)-5-((S)-2-((3S,6S,9S,12S,15S,18S,21S,24S,27S)-9-((1H-indol-3-yl)methyl)-15-(4-acetamidobutyl)-27-(5,39-dioxo-43-((3aS,4S,6aR)-2-oxohexahydro-1H-thieno[3,4-d]imidazol-4-yl)-8,11,14,17,20,23,26,29,32,35-decaoxa-4,38-diazatritetracontanamido)-12-((5-hydroxy-1H-indol-3-yl)methyl)-24-(4-hydroxybenzyl)-6-((S)-1-hydroxyethyl)-21-(hydroxymethyl)-N,4,16,19-tetramethyl-5,8,11,14,17,20,23,26,30-nonaoxo-18-phenethyl-1,4,7,10,13,16,19,22,25-nonaazacyclotriacontane-3-carboxamido)-3-(4-fluorophenyl)propanamido)-6-amino-6-oxohexyl)carbamoyl)piperazin-1-yl) acetic acid TFA salt | – | – | – | – | – | – | – | – | ring closure, yield after HPLC ([10]; 30-membered ring, PyAOP/DIEA, […], 50.0 °C): 0.5% |
| COCCOCCOCCOCCOCCOCCOCCOCCOCCOCCOCCOCCC(=O)N[C@H]1CCCC(=O)NC[C@@H](C(=O)N(C)[C@@H](Cc2ccc(F)cc2)C(=O)N[C@@H](CCCCNC(=O)CN2CCN(CC(=O)O)CCN(CC(=O)O)CCN(CC(=O)O)CC2)C(N)=O)N(C)C(=O)[C@H](C2CC2)NC(=O)[C@H](Cc2c[nH]c3ccccc23)NC(=O)[C@H](Cc2c[nH]c3ccc(O)cc23)NC(=O)[C@H](CCCCNC(C)=O)N(C)C(=O)[C@H](CCc2ccccc2)N(C)C(=O)[C@H](CO)NC(=O)[C@H](Cc2ccc(O)cc2)NC1=O [Example I1, Example B2 labelled with ^68Ga, metal not drawn] | – | – | – | – | – | – | – | – | Radiochemical purity by radio-HPLC, stability in solution, 4 h [9]: 97.2% |
| COCCOCCOCCOCCOCCOCCOCCOCCOCCOCCOCCOCCC(=O)N[C@H]1CCCC(=O)NC[C@@H](C(=O)N(C)[C@@H](Cc2ccc(F)cc2)C(=O)N[C@@H](CCCCNC(=O)CN2CCN(CC(=O)O)CCN(CC(=O)O)CCN(CC(=O)O)CC2)C(N)=O)N(C)C(=O)[C@H](C2CC2)NC(=O)[C@H](Cc2c[nH]c3ccccc23)NC(=O)[C@H](Cc2c[nH]c3ccc(O)cc23)NC(=O)[C@H](CCCCNC(C)=O)N(C)C(=O)[C@H](CCc2ccccc2)N(C)C(=O)[C@H](CO)NC(=O)[C@H](Cc2ccc(O)cc2)NC1=O [Example B2] | > 6 µM | < 0.0001 µM | > 6 µM | < 0.0001 µM | > 6 µM | 0.0002 µM | 0.0001 µM | > 6 µM | – |
| CC(=O)NCCCC[C@H]1C(=O)N[C@@H](Cc2c[nH]c3ccc(O)cc23)C(=O)N[C@@H](Cc2c[nH]c3ccccc23)C(=O)N[C@@H](C2CC2)C(=O)N(C)[C@H](C(=O)N(C)[C@@H](Cc2ccc(F)cc2)C(=O)N[C@@H](CCCCNC(=O)CN2CCN(CC(=O)O)CCN(CC(=O)O)CCN(CC(=O)O)CC2)C(N)=O)CNC(=O)CCC[C@H](NC(C)=O)C(=O)N[C@H](Cc2ccc(O)cc2)C(=O)N[C@H](CO)C(=O)N(C)[C@@H](CCc2ccccc2)C(=O)N1C [Example H4, Example B4 labelled with ^177Lu, metal not drawn] | – | – | – | – | – | – | – | – | Radiochemical purity by radio-HPLC, stability in solution, 5 h (%) [11]: 98.6%; Radiochemical purity by radio-HPLC, stability in solution, 24 h (%) [11]: 98.2%; Radiochemical purity by radio-HPLC, stability in solution, 48 h (%) [11]: 97.6%; Radiochemical purity by radio-HPLC, stability in solution, 72 h (%) [11]: 97.8% |
| H-CYS[NMehPhe][NMeS][Trp(5-OH)]W[cProG][NMeC][NMePhe(4-F)]-NH2 (disulfide 1-9) [Example A54] | – | – | – | – | – | – | – | – | Kd [12]: 5.3 µM |
| Ac-[Aad]YS[NMehPhe][MeKAc][Trp(5-OH)]A[CproG][NMeDap][NMePhe(4-F)]K(DOTA)-NH2 (lactam 1-9; reading uncertain; also: DOTA complexed with 175Lu) [Example C32] | – | – | – | – | – | – | – | – | IC50 [13]: 9.81 µM |
